In patent US20080242657A1, “Treatment of Tremor with Histamine H3 Inverse Agonists or Hist Amine H3 Antagonists” (priority 2004, published 2008):

System: harmaline-induced tremor
Test: harmaline-induced tremor model in rats
Format: in vivo
Excerpt: The identification of a compound as a histamine H3 inverse agonist or a histamine H3 antagonist may be readily determined without undue experimentation by methodology well known in the art. The efficacy of a histamine H3 inverse agonist or a histamine H3 antagonist in treating tremor may be readily determined without undue experimentation by methodology well known in the art, for example the harmaline-induced tremor model in rats, Sinton, et al., Pflugers Archive Eur. J. Phys., 414(1) 31-36 (1989). […] The ability of the histamine H3 inverse agonist or histamine H3 antagonist to be used in the present invention to treat tremor or movement disorders may be determined by these methods.

N#Cc1ccc(-c2cnc(OC3CCN(C4CCCC4)CC3)nc2)cc1 [2-(1-cyclopentylpiperidine-4-yloxy)-5-(4-cyanophenyl)pyrimidine]
reversal of harmaline-induced tremor (dose of 1 mg/kg): 8.4%
reversal of harmaline-induced tremor (dose of 3 mg/kg): 63.3%
reversal of harmaline-induced tremor (dose of 10 mg/kg): 84.4%
